# US20230210848A1, “CORONAVIRUS INFECTION THERAPEUTIC AGENT FORMED THROUGH COMBINATION OF PYRAZINE DERIVATIVE AND ANOTHER CORONAVIRUS INFECTION THERAPEUTIC DRUG” (priority 2020, published 2023)
# Test system: HCoV-OC43
# Assay: Test Example 2: CPE inhibition in HCoV-OC43 infected BHK-21 cells, single or combination use
# Assay type: cell-based, Human coronavirus (HCoV-OC43)
# [1] = Betacoronavirus 1, OC43, BHK-21, read-out: CPE inhibition rate
structure (smiles),measurement,setting,value
CCC(CC)COC(=O)[C@H](C)N[P@](=O)(OC[C@H]1O[C@@](C#N)(c2ccc3c(N)ncnn23)[C@H](O)[C@@H]1O)Oc1ccccc1 [remdesivir],inhibition at 0.1 µM,[1],51%
same,inhibition at 0.3 µM,[1],80%
"NC(=O)c1nc(F)cnc1O [T-705, favipiravir]",CPE inhibition rate,"single use of 1000 μM of T-705, BHK-21 cells",79%
